Experimental data from patent publication US20160346249A1 (priority 2012, published 2016).

Key:
[1] = Rat CNS study (functional observational battery, locomotor activity); conditions: Crl:CD(SD)IGS BR, in vivo; for mean rearing counts lower than control, 2-minute open field: po; for mean rearing counts lower than control, 2-minute open field / mean urination values higher than control: 1 h
Procedure: There were eight animals of each gender per group. Functional observational battery (FOB) assessments and automated 1-hour locomotor activity data were recorded for all animals 7 days prior to dose administration (pre-test), and again beginning 1 hour following dosing on Day 0. Following completion of the FOB and locomotor activity evaluations, all animals were euthanized and discarded.

[2] = Acute intravenous or oral rat bioavailability study; assay type: in vivo; conditions: plasma, oral 10 mg/kg vs IV 5 mg/kg, both sexes, read-out: absolute oral bioavailability
Procedure: Plasma samples were assayed using a validated LC/MS/MS assay.

[3] = test system: Caco-2 cells; test: in vitro; assay type: in vitro ADME; conditions: human, Caco-2, 2 h, 10 μM, pH 7.4
Procedure: (§1) (Kalamazoo, Mich.). […] Receiver solutions consisted of buffer only. Sequential samples of transported solute are taken at 20 minute intervals in duplicate over 2 hours and the concentration of the transported compound was determined by HPLC-UV/MS. Test sample concentration is determined by LC/MS. Permeability coefficients are calculated for each sampling interval, and averages from the intervals were determined. The apparent permeability coefficient Papp is calculated from the equation where dQ/dt is the rate of permeation of drug across the cells, C0 is the original concentration in donor compartment at time zero, and A is the area of the cell monolayer. Mass balance in the system is ascertained by comparing the sum of transported solute and remaining donor solute to the starting solution concentration. The integrity of the monolayers is verified by monitoring Lucifer yellow permeation and the known P-glycoprotein substrate […] is used as a positive control.

[4] = in vitro; assay type: in vitro ADME; conditions: human, Caco-2, pH 7.4
Procedure: as §1

Clc1ccc([C@]23CNC[C@H]2C3)cc1Cl [amitifadine, (+)-1-(3,4-dichlorophenyl)-3-azabicyclo[3.1.0]hexane]
NOAEL ([1]; both sexes, single oral gavage, read-out: NOAEL for CNS toxicity): 100 mg/kg | mean rearing counts lower than control, 2-minute open field ([1]; female, 30 mg/kg): 67.1% | mean rearing counts lower than control, 2-minute open field ([1]; female, 100 mg/kg): 78.6% | mean urination values higher than control ([1]; male, 10 mg/kg): approximately 3 fold | mean urination values higher than control ([1]; male, 30 mg/kg): approximately 3 fold | mean urination values higher than control ([1]; male, 100 mg/kg): ~5 fold | mean rearing counts lower than control, 2-minute open field ([1]; male, 100 mg/kg): 56.5% | bioavailability [2]: ≥ 77% | Mass balance, AP→BL [3]: 62% | Mass balance, BL→AP [3]: (88%) | recovery at 2 h, 10 μM [4]: 62%
